Assay results: patent publication US11098053B2, “Enhanced osteogenic activity of daidzein analogs on human mesenchymal stem cells” (THE ADMINISTRATORS OF THE TULANE EDUCATIONAL FUND, priority 2013, dated 2021)

Key:
[1] = tested on: Human bone marrow derived mesenchymal stem cells (MSCs); assay: Osteogenic differentiation of MSCs (Alizarin Red calcium deposition); conditions: for osteogenic activity (structure-activity summary, in words): donor MSCs; for osteogenic activity (structure-activity summary, in words) / osteogenesis averaged over all three donors, relative to vehicle treated MSCs: 1 μM; for osteogenic activity (structure-activity summary, in words) / IC50 / induction category of osteogenic differentiation (no, low, high induction) / osteogenesis averaged over all three donors, relative to vehicle treated MSCs: 14 days; for IC50: read-out: IC50 averaged among the three donors, mean of three donors; for induction category of osteogenic differentiation (no, low, high induction): screen, MSCs from one donor (Donor 1), analogs and daidzein 1 μM, estrogen 10 nM
ASCs = assay: Osteogenic differentiation of ASCs (alizarin red); conditions: 14 days; for osteogenic differentiation (calcium deposition), fold relative to vehicle-treated ASCs: n=6 donors, estrogen 10 nM, others 1 μM; for osteogenic potential of ASCs relative to vehicle, with fulvestrant: 1 μM + 100 nM fulvestrant; for osteogenic potential of ASCs relative to vehicle, with fulvestrant / osteogenic potential of ASCs relative to vehicle, inhibitor study, without fulvestrant: FIG. 12; for osteogenic potential of ASCs relative to vehicle, inhibitor study, without fulvestrant: 1 μM
BMSCs [2] = assay: Osteogenic differentiation of BMSCs (alizarin red); conditions: 14 days; for osteogenic differentiation (calcium deposition), fold relative to vehicle-treated BMSCs: n=6 donors, estrogen 10 nM, others 1 μM; for osteogenic potential of BMSCs relative to vehicle, with fulvestrant: 1 μM + 100 nM fulvestrant; for osteogenic potential of BMSCs relative to vehicle, with fulvestrant / osteogenic potential of BMSCs relative to vehicle, inhibitor study, without fulvestrant: FIG. 12; for osteogenic potential of BMSCs relative to vehicle, inhibitor study, without fulvestrant: 1 μM
[3] = tested on: MSCs (Sp7, ALP, OP, IGF1 transcripts); assay: qRT-PCR of osteogenic transcription factors in MSCs; type: cell-based, human; conditions: pooled MSCs, 1 μM, 14 days
Description: . […] The following primer set sequence for was used: Sp7 forward 5′-CCAGTGTCTACACCTCTC-3′ (SEQ ID NO: 1), reverse 5′-ATGGAGTAGGAGTGTTGC-3′ (SEQ ID NO: 2); IGF-1 forward 5′-CTGTGATCTAAGGAGGCTG-3′ (SEQ ID NO: 3), reverse 5′-[…]-3′ (SEQ ID NO: 4); ALP forward 5′-[…]-3′ (SEQ ID NO: 5), reverse 5′-[…]-3′ (SEQ ID NO: 6); osteopontin forward 5′-[…]-3′ (SEQ ID NO: 7), reverse 5′-[…]-3′ (SEQ ID NO: 8). β-actin forward 5′-[…]-3′ (SEQ ID NO: 9), reverse 3′-[…]-5′ (SEQ ID NO: 10) was used as an internal reference point. At the completion of the reaction, ΔΔCt was calculated to quantify mRNA expression.

BMSCs [4] = tested on: BMSCs

| SMILES | differentiation at day 7 [1] | osteogenic activity (structure-activity summary, in words) [1] | IC50 [1] [nM] | induction category of osteogenic differentiation (no, low, high induction) [1] | osteogenesis averaged over all three donors, relative to vehicle treated MSCs [1] | osteogenic differentiation (calcium deposition), fold relative to vehicle-treated ASCs (ASCs) [fold] | osteogenic differentiation (calcium deposition), fold relative to vehicle-treated BMSCs (BMSCs [2]) [fold] | ALP expression relative to cells treated with vehicle in ODM [3] | IGF1 expression relative to cells treated with vehicle in ODM [3] | OP expression relative to cells treated with vehicle in ODM [3] | Sp7 expression relative to cells treated with vehicle in ODM [3] | osteogenic potential of ASCs relative to vehicle, with fulvestrant (ASCs) [fold] | osteogenic potential of ASCs relative to vehicle, inhibitor study, without fulvestrant (ASCs) [fold] | cytotoxicity at higher dosages (BMSCs [4]) | osteogenic potential of BMSCs relative to vehicle, with fulvestrant (BMSCs [2]) [fold] | osteogenic potential of BMSCs relative to vehicle, inhibitor study, without fulvestrant (BMSCs [2]) [fold] |
| --- | --- | --- | --- | --- | --- | --- | --- | --- | --- | --- | --- | --- | --- | --- | --- | --- |
| CC(C)Oc1ccc2c(=O)c(-c3ccc(O)cc3)coc2c1 [2c, 3-(4-Hydroxyphenyl)-7-isopropoxy-4H-chromen-4-one] | enhanced differentiation at day 7 | marked enhancement | 58.2 | high inducers | 2.0±0.41 | 1.7 | 1.6 | 2.45±0.80 | 26.96±9.19 | 2.68±0.11 | 20.08±4.81 |  |  |  |  |  |
| O=c1c(-c2ccc(O)cc2)coc2cc(OC3CCCC3)ccc12 [2g, 7-Cyclopentyloxy-3-(4-hydroxyphenyl)-4H-chromen-4-one] |  | modest osteogenic activity |  |  | 2.0±0.64 | 2.0 | 1.6 |  |  |  |  | 0.9 | 2.0 | nor lead to cytotoxicity | 0.8 | 1.9 |
| C=CCOc1ccc2c(=O)c(-c3ccc(O)cc3)coc2c1 [2l, 7-(Allyloxy)-3-(4-hydroxyphenyl)-4H-chromen-4-one] | enhanced differentiation at day 7 | marked enhancement | 138 | high inducers | 2.0±0.18 | 2.2 | 1.9 |  |  |  |  | 1.7 | 2.4 | nor lead to cytotoxicity | 1.5 | 2.0 |
